Experimental data reported in patent US11583533B2, “Topical pharmaceutical compositions comprising 2-[3-[4-amino-3-(2-fluoro-4-phenoxy-phenyl)-1H-pyrazolo[3,4-d]pyrimidin-1-yl]piperidine-1-carbonyl]-4,4-dimethylpent-2-enenitrile” (Principia Biopharma Inc., priority 2020, dated 2023).

Experiment: Skin penetration of Compound (I) into the dermis and epidermis
Assay type: in vitro ADME
Details: human abdominal skin from elective surgery (500±50 μm)
Procedure: Using skin from one donor (n=4-5 replicates per condition) and a receptor solution comprising phosphate/citrate buffer pH 5.6 with 0.01% Brij 98, a dose of 10 mg/cm^2 Compound (I) was applied in the form of one of three 2% Compound (I) gel formulations comprising one of crystalline Form (I), amorphous Compound (I), or crystalline Form (II). Samples were collected every 3 hours for 24 hours. Prior to separating the epidermis and dermis, the residual formulation was removed from the surface of the skin, and then the skin surface was tape stripped up to 5 times to remove residual formulation and the top of the skin surface layers (stratum corneum). The dermis and epidermis were separated by heating to 60° C. for 2 minutes, followed by manual separation using forceps. The extraction fluid used was 90:10 acetonitrile:water with 0.1% BHT. Epidermis and dermis samples were homogenized, then shaken at 130 RPM overnight, and transferred to lo-bind DW96 plates.

ability to penetrate skin into the dermis and epidermis: able to penetrate
SMILES: CC(C)(C)C=C(C#N)C(=O)N1CCCC(n2nc(-c3ccc(Oc4ccccc4)cc3F)c3c(N)ncnc32)C1 (stereo not shown) [Compound (I), 2-(3-(4-amino-3-(2-fluoro-4-phenoxyphenyl)-1H-pyrazolo[3,4-d]pyrimidin-1-yl)piperidine-1-carbonyl)-4,4-dimethylpent-2-enenitrile]
